Experimental data as given in patent US9586928B2 (The Scripps Research Institute, priority 2011, dated 2017).

What was measured:
VP16 = test: Gal4 DBD-VP16 / UAS luciferase control assay; type: cell-based; conditions: 10 μM
Protocol: (§1) The cells were treated with either DMSO or various compounds as indicated four hours after replating. Following additional 20 hour incubation, luciferase levels were assayed by one-step addition of 20 μL BriteLite (Perkin Elmer) and read using an Envision multilabel plate reader (Perkin Elmer).

RORγ = biological target: T1, RORγ (Homo sapiens, UniProt P51449); test: Gal4-RORγ LBD / UAS luciferase cotransfection assay; type: cell-based; conditions: for RORγ repression, fold change over DMSO: 10 μM
T1 construct: expressed in transfected cells; host or cells: HEK293T
T1 sequence (P51449 269-508 limits assumed): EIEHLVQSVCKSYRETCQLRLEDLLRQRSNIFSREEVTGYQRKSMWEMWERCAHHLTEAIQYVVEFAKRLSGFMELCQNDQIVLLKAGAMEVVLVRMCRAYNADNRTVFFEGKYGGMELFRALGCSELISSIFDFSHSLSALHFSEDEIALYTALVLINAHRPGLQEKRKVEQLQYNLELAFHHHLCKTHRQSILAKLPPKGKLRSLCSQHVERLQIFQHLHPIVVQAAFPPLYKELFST
Protocol: as §1
(§2) Cotransfection assays were performed as previously described in HEK293 cells (Gal4 cotransfection assay or IL-17 luciferase reporter)[8]. HEK293 and the mouse lymphoma EL4 (ATCC) cells were maintained in DMEM supplemented with 10% FBS plus antibiotics (penicillin and streptomycin; Invitrogen).

RORα = biological target: T2, RORα (Homo sapiens, UniProt P35398); test: Gal4-RORα LBD / UAS luciferase cotransfection assay; type: cell-based; conditions: 10 μM
T2 construct: expressed in transfected cells; host or cells: HEK293T
T2 sequence (P35398 272-510 limits assumed): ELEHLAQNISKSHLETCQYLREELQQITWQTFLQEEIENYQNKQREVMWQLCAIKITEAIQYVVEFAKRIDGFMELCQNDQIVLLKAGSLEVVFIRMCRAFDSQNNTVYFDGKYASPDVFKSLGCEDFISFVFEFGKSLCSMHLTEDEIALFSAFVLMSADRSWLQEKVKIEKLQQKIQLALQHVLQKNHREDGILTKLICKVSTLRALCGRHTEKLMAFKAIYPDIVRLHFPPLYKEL
Protocol: as §1, §2

LXR = biological target: T3, LXR (Homo sapiens, UniProt Q13133); test: Gal4-LXRα / UAS luciferase cotransfection assay; type: cell-based; conditions: 10 μM
T3 sequence (Q13133 209-447 limits assumed): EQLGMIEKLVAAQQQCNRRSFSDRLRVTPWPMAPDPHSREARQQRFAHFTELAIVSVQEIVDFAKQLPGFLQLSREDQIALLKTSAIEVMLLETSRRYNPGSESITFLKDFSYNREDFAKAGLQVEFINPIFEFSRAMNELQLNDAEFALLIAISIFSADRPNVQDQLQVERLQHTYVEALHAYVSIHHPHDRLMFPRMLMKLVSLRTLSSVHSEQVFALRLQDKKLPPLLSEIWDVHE

GST-RORγ = biological target: T4, GST-RORγ (Homo sapiens, UniProt P51449); test: RORγ scintillation proximity (SPA) radioligand binding assay, displacement of [3H]-T0901317; conditions: for IC50: displacement of 5 nM [3H]-T0901317 from GST-RORγ; for remaining activity at 10 µM: 10 μM compound, read-out: RORγ SPA % bound = % radiolabel bound
T4 construct: 1 μg of GST-RORγ-LBD, 5 nM of [3H]T1317 as radioligand
T4 sequence (P51449 269-508 limits assumed): T1 sequence (P51449 269-508 limits assumed)

OC(c1ccc(-c2ccc(CN3CCN(Cc4ccncc4)CC3)cc2)cc1)(C(F)(F)F)C(F)(F)F [Compound 1, 1,1,1,3,3,3-Hexafluoro-2-(4′-((4-(pyridin-4-ylmethyl)piperazin-1-yl)methyl)-[1,1′-biphenyl]-4-yl)propan-2-ol]
VP16 repression, fold change over DMSO (VP16): 1 fold change over DMSO
IC50 (RORγ; Gal4 cotransfection): 0.4 µM
RORα repression, fold change over DMSO (RORα): 1 fold change over DMSO
LXR activation, fold change over DMSO (LXR): 1 fold change over DMSO
IC50 (GST-RORγ): 0.15 µM

OC(c1ccc(-c2ccc(CN3CCN(C4CC4)CC3)cc2)cc1)(C(F)(F)F)C(F)(F)F [Compound 17, 2-(4′-((4-Cyclopropylpiperazin-1-yl)methyl)-[1,1′-biphenyl]-4-yl)-1,1,1,3,3,3-hexafluoropropan-2-ol]
VP16 repression, fold change over DMSO (VP16): 0.4 fold change over DMSO
RORγ repression, fold change over DMSO (RORγ): 0.25 fold change over DMSO
RORα repression, fold change over DMSO (RORα): 0.55 fold change over DMSO
LXR activation, fold change over DMSO (LXR): 0.75 fold change over DMSO
remaining activity at 10 µM (GST-RORγ): 20%

OC(c1ccc(-c2ccc(CN3CCN(Cc4ccncc4Br)CC3)cc2)cc1)(C(F)(F)F)C(F)(F)F [Compound 59, 2-(4′-((4-((3-Bromopyridin-4-yl)methyl)piperazin-1-yl)methyl)-[1,1′-biphenyl]-4-yl)-1,1,1,3,3,3-hexafluoropropan-2-ol]
VP16 repression, fold change over DMSO (VP16): 0.4 fold change over DMSO
RORγ repression, fold change over DMSO (RORγ): 0.05 fold change over DMSO
RORα repression, fold change over DMSO (RORα): 0.4 fold change over DMSO
LXR activation, fold change over DMSO (LXR): 4 fold change over DMSO
IC50 (GST-RORγ): 1.1 µM

OC(c1ccc(-c2ccc(CN3CCC(Cc4ccc5c(c4)OCO5)CC3)cc2)cc1)(C(F)(F)F)C(F)(F)F [Compound 88, 2-(4′-((4-(Benzo[d][1.3]dioxol-5-ylmethyl)piperidin-1-yl)methyl)-[1,1′-biphenyl]-4-yl)-1,1,1,3,3,3-hexafluoropropan-2-ol]
VP16 repression, fold change over DMSO (VP16): 0.3 fold change over DMSO
RORγ repression, fold change over DMSO (RORγ): 0.2 fold change over DMSO
RORα repression, fold change over DMSO (RORα): 0.6 fold change over DMSO
LXR activation, fold change over DMSO (LXR): 1.3 fold change over DMSO
remaining activity at 10 µM (GST-RORγ): 35%

OC(c1ccc(-c2ccc(CN3CCN(Cc4ccncc4Cl)CC3)cc2)cc1)(C(F)(F)F)C(F)(F)F [Compound 92]
VP16 repression, fold change over DMSO (VP16): 0.6 fold change over DMSO
RORγ repression, fold change over DMSO (RORγ): 0.1 fold change over DMSO
RORα repression, fold change over DMSO (RORα): 0.7 fold change over DMSO
LXR activation, fold change over DMSO (LXR): 5 fold change over DMSO
remaining activity at 10 µM (GST-RORγ): 25%

Cc1cc(-c2ccc(C(O)(C(F)(F)F)C(F)(F)F)cc2)ccc1CN1CCN(Cc2ccncc2)CC1 [Compound 94, 1,1,1,3,3,3-Hexafluoro-2-(3′-methyl-4′-((4-(pyridin-4-ylmethyl)piperazin-1-yl)methyl)-[1,1′-biphenyl]-4-yl)propan-2-ol]
VP16 repression, fold change over DMSO (VP16): 0.8 fold change over DMSO
RORγ repression, fold change over DMSO (RORγ): 0.05 fold change over DMSO
RORα repression, fold change over DMSO (RORα): 0.5 fold change over DMSO
LXR activation, fold change over DMSO (LXR): 0.8 fold change over DMSO
IC50 (GST-RORγ): 0.23 µM

COc1cc(-c2ccc(C(O)(C(F)(F)F)C(F)(F)F)cc2)ccc1CN1CCN(Cc2ccncc2)CC1 [Compound 97, 1,1,1,3,3,3-Hexafluoro-2-(3′-methoxy-4′-((4-(pyridin-4-ylmethyl)piperazin-1-yl)methyl)-[1,1′-biphenyl]-4-yl)propan-2-ol]
VP16 repression, fold change over DMSO (VP16): 0.5 fold change over DMSO
RORγ repression, fold change over DMSO (RORγ): 0.05 fold change over DMSO
RORα repression, fold change over DMSO (RORα): 0.5 fold change over DMSO
LXR activation, fold change over DMSO (LXR): 1 fold change over DMSO
IC50 (GST-RORγ): 1.5 µM

OC(c1ccc(-c2ccc(CN3CCN(Cc4ccncc4)CC3)c(F)c2)cc1)(C(F)(F)F)C(F)(F)F [Compound 98, 1,1,1,3,3,3-Hexafluoro-2-(3′-fluoro-4′-((4-(pyridin-4-ylmethyl)piperazin-1-yl)methyl)-[1,1′-biphenyl]-4-yl)propan-2-ol]
VP16 repression, fold change over DMSO (VP16): 0.65 fold change over DMSO
RORγ repression, fold change over DMSO (RORγ): 0.05 fold change over DMSO
RORα repression, fold change over DMSO (RORα): 0.8 fold change over DMSO
LXR activation, fold change over DMSO (LXR): 2 fold change over DMSO
IC50 (GST-RORγ): 1.5 µM

O=C(c1ccc(-c2ccc(C(O)(C(F)(F)F)C(F)(F)F)cc2)cc1)N1CCN(Cc2ccncc2)CC1 [Compound 100, (4′-(1,1,1,3,3,3-Hexafluoro-2-hydroxypropan-2-yl)-[1,1′-biphenyl]-4-yl)(4-(pyridin-4-ylmethyl)piperazin-1-yl)methanone]
VP16 repression, fold change over DMSO (VP16): 0.4 fold change over DMSO
RORγ repression, fold change over DMSO (RORγ): 0.1 fold change over DMSO
RORα repression, fold change over DMSO (RORα): 0.6 fold change over DMSO
LXR activation, fold change over DMSO (LXR): 0.8 fold change over DMSO
IC50 (GST-RORγ): 1.7 µM

OC(c1ccc(-c2ccc(CN3CCC(Nc4ccncc4)CC3)cc2)cc1)(C(F)(F)F)C(F)(F)F [Compound 104, 1,1,1,3,3,3-Hexafluoro-2-(4′-((4-(pyridin-4-ylamino)piperidin-1-yl)methyl)-[1,1′-biphenyl]-4-yl)propan-2-ol]
VP16 repression, fold change over DMSO (VP16): 0.4 fold change over DMSO
RORγ repression, fold change over DMSO (RORγ): 0.1 fold change over DMSO
RORα repression, fold change over DMSO (RORα): 0.9 fold change over DMSO
LXR activation, fold change over DMSO (LXR): 1.1 fold change over DMSO
remaining activity at 10 µM (GST-RORγ): 20%

OC(c1ccc(-c2ccc(CN3CCN(Cc4cncs4)CC3)cc2)cc1)(C(F)(F)F)C(F)(F)F [Compound 114, 1,1,1,3,3,3-Hexafluoro-2-(4′-((4-(thiazol-5-ylmethyl)piperazin-1-yl)methyl)-[1,1′-biphenyl]-4-yl)propan-2-ol]
VP16 repression, fold change over DMSO (VP16): 0.92 fold change over DMSO
RORγ repression, fold change over DMSO (RORγ): 0.87 fold change over DMSO
RORα repression, fold change over DMSO (RORα): 0.79 fold change over DMSO
LXR activation, fold change over DMSO (LXR): 0.63 fold change over DMSO
remaining activity at 10 µM (GST-RORγ): 50%

OC(c1ccc(-c2ccc(CN3CCN(Cc4cscn4)CC3)cc2)cc1)(C(F)(F)F)C(F)(F)F [Compound 115, 1,1,1,3,3,3-Hexafluoro-2-(4′-((4-(thiazol-4-ylmethyl)piperazin-1-yl)methyl)-[1,1′-biphenyl]-4-yl)propan-2-ol]
VP16 repression, fold change over DMSO (VP16): 0.69 fold change over DMSO
RORγ repression, fold change over DMSO (RORγ): 0.31 fold change over DMSO
RORα repression, fold change over DMSO (RORα): 0.61 fold change over DMSO
LXR activation, fold change over DMSO (LXR): 0.76 fold change over DMSO
remaining activity at 10 µM (GST-RORγ): 75%

O=C(c1cscn1)N1CCN(Cc2ccc(-c3ccc(C(O)(C(F)(F)F)C(F)(F)F)cc3)cc2)CC1 [Compound 116, (4-((4′-(1,1,1,3,3,3-Hexafluoro-2-hydroxypropan-2-yl)-[1,1′-biphenyl]-4-yl)methyl)piperazin-1-yl)(thiazol-4-yl)methanone]
VP16 repression, fold change over DMSO (VP16): 0.76 fold change over DMSO
RORγ repression, fold change over DMSO (RORγ): 0.59 fold change over DMSO
RORα repression, fold change over DMSO (RORα): 0.56 fold change over DMSO
LXR activation, fold change over DMSO (LXR): 0.81 fold change over DMSO
remaining activity at 10 µM (GST-RORγ): 76%
